ChEMBL document CHEMBL5614390, “Novel EGFR inhibitors against resistant L858R/T790M/C797S mutant for intervention of non-small cell lung cancer” (Eur J Med Chem, 2024)
Active and inactive are the calls of the source. The rule behind the calls is not given here.

Tests used:
PC-9 [1] = assay: Induction of apoptosis in human PC-9 cells expressing EGFR L858R/T790M/C797S mutant assessed as necrotic cells at 0.5 uM incubated for 48 hrs by Annexin V-FITC/PI staining based flow cytometric analysis (reference value: 0.540 %); assay type: functional
[2] = Metabolic stability in human liver microsomes assessed as intrinsic clearance at 10 uM preincubated for 5 mins followed by NADPH addition and measured upto 60 mins by HPLC analysis; assay type: ADME, Microsome; settings: time < 65 min, read-out: CLH
PC-9 [3] = assay: Induction of apoptosis in human PC-9 cells expressing EGFR Del19/T790M/C797S mutant assessed as necrotic cells at 0.1 uM incubated for 48 hrs by Annexin V-FITC/PI staining based flow cytometric analysis (reference value: 0.090 %); assay type: functional
PC-9 [4] = assay: cells; settings: Homo sapiens, PC-9, 72 h
Description: Cytotoxicity against human PC-9 cells expressing EGFR L858R/T790M/C797S mutant assessed as inhibition of cell proliferation incubated for 72 hrs by CCK8 assay

A-431 = assay: cells; settings: Homo sapiens, A-431, 72 h
Description: Cytotoxicity against human A-431 cells assessed as inhibition of cell proliferation incubated for 72 hrs by CCK8 assay

PC-9 [5] = assay: Antitumor activity against human PC-9 cells expressing EGFR L858R/T790M/C797S mutant xenografted in BALB/c nude mouse assessed as average tumor weight at 40 mg/kg, po administered for 18 days (reference value: 0.83 g); assay type: functional; settings: time 18 day
[6] = Metabolic stability in rabbit liver microsomes assessed as intrinsic clearance at 10 uM preincubated for 5 mins followed by NADPH addition and measured upto 60 mins by HPLC analysis; assay type: ADME, Oryctolagus cuniculus, Microsome; settings: time < 65 min, read-out: CLH
PC-9 [7] = assay: Antitumor activity against human PC-9 cells expressing EGFR L858R/T790M/C797S mutant xenografted in BALB/c nude mouse assessed as reduction in tumor weight at 10 to 40 mg/kg, po administered for 18 days; assay type: functional, organism-based; settings: dose 10-40 mg/kg, time 18.0 day
PC-9 [8] = assay: Induction of cell cycle arrest in human PC-9 cells expressing EGFR Del19/T790M/C797S mutant assessed as S phase cells at 0.1 to 1 uM incubated for 24 hrs by PI staining based flow cytometric analysis (reference value: 32.4 +/- 1.1 %); assay type: functional; settings: dose 0.1-1 µM
PC-9 [9] = assay: Induction of apoptosis in human PC-9 cells expressing EGFR L858R/T790M/C797S mutant assessed as early apoptotic cells at 0.1 uM incubated for 48 hrs by Annexin V-FITC/PI staining based flow cytometric analysis (reference value: 0.210 %); assay type: functional
MCF7 = assay: cells; settings: Homo sapiens, MCF7, 72 h
Description: Cytotoxicity against human MCF7 cells assessed as inhibition of cell proliferation incubated for 72 hrs by CCK8 assay

PC-9 [10] = assay: Induction of apoptosis in human PC-9 cells expressing EGFR L858R/T790M/C797S mutant assessed as early apoptotic cells at 1 uM incubated for 48 hrs by Annexin V-FITC/PI staining based flow cytometric analysis (reference value: 0.210 %); assay type: functional
PC-9 [11] = assay: Induction of apoptosis in human PC-9 cells expressing EGFR Del19/T790M/C797S mutant assessed as viable cells at 0.5 uM incubated for 48 hrs by Annexin V-FITC/PI staining based flow cytometric analysis (reference value: 99.8 %); assay type: functional; settings: read-out: Activity
[12] = Metabolic stability in rabbit liver microsomes assessed as half-life at 10 uM preincubated for 5 mins followed by NADPH addition and measured upto 60 mins by HPLC analysis; assay type: ADME, Oryctolagus cuniculus, Microsome; settings: time < 65 min
PC-9 [13] = assay: cells; settings: Homo sapiens, PC-9, 72 h; remark: listed apart in the source
Description: Cytotoxicity against human PC-9 cells expressing EGFR Del19 mutant assessed as inhibition of cell proliferation incubated for 72 hrs by CCK8 assay

PC-9 [14] = assay: Induction of apoptosis in human PC-9 cells expressing EGFR L858R/T790M/C797S mutant assessed as viable cells at 1 uM incubated for 48 hrs by Annexin V-FITC/PI staining based flow cytometric analysis (reference value: 98.9 %); assay type: functional; settings: Homo sapiens, PC-9, read-out: Activity
PC-9 [15] = assay: Induction of apoptosis in human PC-9 cells expressing EGFR L858R/T790M/C797S mutant assessed as viable cells at 0.1 uM incubated for 48 hrs by Annexin V-FITC/PI staining based flow cytometric analysis (reference value: 98.9 %); assay type: functional; settings: read-out: Activity
PC-9 [16] = assay: Induction of apoptosis in human PC-9 cells expressing EGFR Del19/T790M/C797S mutant assessed as viable cells at 0.1 uM incubated for 48 hrs by Annexin V-FITC/PI staining based flow cytometric analysis (reference value: 99.8 %); assay type: functional; settings: read-out: Activity
PC-9 [17] = assay: Antitumor activity against human PC-9 cells expressing EGFR L858R/T790M/C797S mutant xenografted in BALB/c nude mouse assessed as reduction in tumor volume at 10 to 40 mg/kg, po administered for 18 days; assay type: functional, organism-based; settings: dose 10-40 mg/kg, time 18.0 day
[18] = Metabolic stability in Sprague-Dawley rat liver microsomes assessed as intrinsic clearance at 10 uM preincubated for 5 mins followed by NADPH addition and measured upto 60 mins by HPLC analysis; assay type: ADME, Microsome; settings: time < 65 min, read-out: CLH
PC-9 [19] = assay: Induction of apoptosis in human PC-9 cells expressing EGFR L858R/T790M/C797S mutant assessed as late apoptotic cells at 0.5 uM incubated for 48 hrs by Annexin V-FITC/PI staining based flow cytometric analysis (reference value: 0.360 %); assay type: functional
[20] = Metabolic stability in mouse liver microsomes assessed as half-life at 10 uM preincubated for 5 mins followed by NADPH addition and measured upto 60 mins by HPLC analysis; assay type: ADME, Microsome; settings: time < 65 min
PC-9 [21] = assay: Induction of apoptosis in human PC-9 cells expressing EGFR Del19/T790M/C797S mutant assessed as early apoptotic cells at 1 uM incubated for 48 hrs by Annexin V-FITC/PI staining based flow cytometric analysis (reference value: 0.050 %); assay type: functional
[22] = Metabolic stability in Sprague-Dawley rat liver microsomes assessed as half-life at 10 uM preincubated for 5 mins followed by NADPH addition and measured upto 60 mins by HPLC analysis; assay type: ADME, Microsome; settings: time < 65 min
PC-9 [23] = assay: Induction of apoptosis in human PC-9 cells expressing EGFR L858R/T790M/C797S mutant assessed as necrotic cells at 0.1 uM incubated for 48 hrs by Annexin V-FITC/PI staining based flow cytometric analysis (reference value: 0.540 %); assay type: functional
PC-9 [24] = assay: Induction of cell cycle arrest in human PC-9 cells expressing EGFR Del19/T790M/C797S mutant assessed as accumulation of cells at G0/G1 phase at low dose incubated for 24 hrs by PI staining based flow cytometric analysis; assay type: functional

## C=CC(=O)Nc1cc(Nc2ncc(F)c(-c3ccc4cc(C(=O)NC)n(C(C)C)c4c3)n2)ccc1N1CCN(C)CC1
PC-9 [1]
  Activity: 1.77%
[2]
  microsomal CLint at 10 µM: 20 µL/min/mg
PC-9 [3]
  Activity: 3.55%
PC-9 [4]
  IC50: 0.052 µM
A-431
  IC50: 1.07 µM
PC-9 [5]
  Activity: 0.31 g
[6]
  microsomal CLint at 10 µM: 32.7 µL/min/mg
PC-9 [7]
  Activity: Active
PC-9 [8]
  Activity: 15.6%
PC-9 [9]
  Activity: 2.03%
MCF7
  IC50: 3.61 µM
PC-9 [10]
  Activity: 36.3%
PC-9 [11]
  viability at 0.5 µM: 82.8%
[12]
  half-life at 10 µM: 2.36 h
PC-9 [13]
  IC50: 0.144 µM
PC-9 [14]
  viability at 1 µM: 58.8%
PC-9 [15]
  viability at 0.1 µM: 84.9%
PC-9 [16]
  viability at 0.1 µM: 85.8%
PC-9 [17]
  Activity: Active
[18]
  microsomal CLint at 10 µM: 52 µL/min/mg
PC-9 [19]
  Activity: 6.77%
[20]
  half-life at 10 µM: 1.38 h
PC-9 [21]
  Activity: 11.6%
[22]
  half-life at 10 µM: 1.48 h
PC-9 [23]
  Activity: 5.84%
PC-9 [24]
  Activity: Active
